One compound from patent publication US12382954B2, “Pinocembrin dihydrochalcone and compositions thereof and their use as pesticides” (METABOLIC INSIGHTS LTD., priority 2019, dated 2025) can be followed below.

The subject of test [1] is Pectobacterium carotovorum. The class given is cell-based. To be noted: 50 ppm.
The next test concerns Sclerotinia sclerotiorum. Type of test: cell-based. To be noted: 50 ppm.
The test system of a further test is Spodoptera litoralis. The experiment in a line: In-vitro screening matrix, Spodoptera litoralis. The note with it: 50 ppm.
Another test deals with Puccinia triticina. The class given is cell-based. The note with it: 50 ppm.
Test [2] deals with Pseudoperonospora cubensis. The class given is cell-based. The note with it: 50 ppm.
The subject of a further test is Xanthomonas campestris. The class given is cell-based. To be noted: 50 ppm.
Another test concerns Puccinia sorghi. Type of test: cell-based. The note with it: 50 ppm.
For another test, the system named is Botrytis cinerea. The class given is cell-based. To be noted: 50 ppm.
In test [3] the test system is Fusarium oxysporum. The class given is cell-based. To be noted: 50 ppm.
Test [4] concerns Fusarium oxysporum. Kind of test: In planta validation, cucumber seedlings infected with Fusarium oxysporum. To be noted: 3 weeks after infection, 3 independent experiments. The class given is in vivo.
Test [5] relates to Phytophthora infestans. The class given is cell-based. The note with it: 50 ppm, tomato leaf discs, % of maximal value (grade x repeats/12).
The next test concerns Pseudomonas syringae. The class given is cell-based. To be noted: 50 ppm.
The next test relates to Mizus Persicae. The experiment in a line: In-vitro screening matrix, Mizus Persicae. The note with it: 50 ppm.
A further test has as its system Rhizoctonia solani. The class given is cell-based. The note with it: 50 ppm.
Test [6] concerns Phytophthora infestans. The class given is in vivo. The note with it: tomato detached leaf experiment, 500-1000 ppm, spray on leaves, 6 days after infection.
In test [7] the test system is Pythium aphanidermatum. Kind of test: In planta validation, cucumber seedlings infected with Pythium aphanidermatum (soil drench). The note with it: 4 days after infection, 150 ppm-500 ppm, 2 independent experiments. The class given is in vivo.
Test [8] relates to Pythium aphanidermatum. Type of test: cell-based. To be noted: 50 ppm.

As to `O=C(CCc1ccccc1)c1c(O)cc(O)cc1O` [Pinocembrin dihydrochalcone, 3-phenyl-1-(2,4,6-trihydroxyphenyl)propan-1-one], the “Relative Activity value (%)” value was 12% in test [1]; 6% in the test with Sclerotinia sclerotiorum; 0% in the test with Spodoptera litoralis; 19% in the test with Puccinia triticina; 50% in test [2]; 50% with Xanthomonas campestris. Moreover, the “Relative Activity value (%)” value is 0% in the test with Puccinia sorghi; 0% in the test with Botrytis cinerea; 9% in the test on Fusarium oxysporum [3]; 100% in the test on Phytophthora infestans [5]; 6% in the test on Pseudomonas syringae; 0% in the test with Mizus Persicae. Besides, the “Relative Activity value (%)” value in the test on Rhizoctonia solani came out at 6%; with Pythium aphanidermatum [8], 100%. For the same compound, the “range of efficacy in preventing and controlling the Fusarium diseases” value is 66-100% in the test with Fusarium oxysporum [4] (100 ppm and 200 ppm); 88-100% with Fusarium oxysporum [4] (300 ppm). Further, in the test with Phytophthora infestans [6], the “control of Phytophthora infestans” value was “up to 100%”. The “range of efficacy in preventing and controlling the Pythium disease” value with Pythium aphanidermatum [7] was “up to 100%”.
